Results taken from publication PMC9421653 (Journal of Medicinal Chemistry, 2022).
Values after ≈ are worked out from the molar mass of the structure shown.

How the values were obtained:
human GPR84 [1] = target: T1, human GPR84 (Homo sapiens, UniProt Q9NQS5); test: biochemical; assay type: biochemical; settings: [35S]GTPγS assay; negative log of the IC50 in molar; mean ± SEM; read-out: GTPγS (pIC50) (converted)
T1 construct: expressed in transfected cells; host or cells: Flp-In T-REx 293 cells, doxycycline-induced; membrane preparations

human GPR84 [2] = target: T2, human GPR84 (Homo sapiens, UniProt P04899+Q9NQS5); test: biochemical; assay type: biochemical; settings: for LLE: LLE = pIC50 – CLog P; for GTPγS (pIC50): [35S]GTPγS assay, negative log of the IC50 in molar, mean ± SEM
T2 construct: expressed in transfected cells; host or cells: Flp-In T-REx 293 cells, doxycycline-induced; membrane preparations

physchem = settings: pH 7.4, Kinetic Solubility
Excerpt: DPI = 4,5-Diphenylimidazole
(2 pictures or pasted objects on this page, not shown here)

[3] = Mean, PBS pH7.4 in 2% DMSO by LC-MS
[4] = Mean, PBS pH7.4 in 2% DMSO by plate reader
[5] = R=1, PBS pH7.4 in 2% DMSO by LC-MS, replicate 1
[6] = R=1, PBS pH7.4 in 2% DMSO by plate reader, replicate 1
[7] = R=2, PBS pH7.4 in 2% DMSO by LC-MS, replicate 2
[8] = R=2, PBS pH7.4 in 2% DMSO by plate reader, replicate 2

T1 sequence (Q9NQS5+P04899 fused): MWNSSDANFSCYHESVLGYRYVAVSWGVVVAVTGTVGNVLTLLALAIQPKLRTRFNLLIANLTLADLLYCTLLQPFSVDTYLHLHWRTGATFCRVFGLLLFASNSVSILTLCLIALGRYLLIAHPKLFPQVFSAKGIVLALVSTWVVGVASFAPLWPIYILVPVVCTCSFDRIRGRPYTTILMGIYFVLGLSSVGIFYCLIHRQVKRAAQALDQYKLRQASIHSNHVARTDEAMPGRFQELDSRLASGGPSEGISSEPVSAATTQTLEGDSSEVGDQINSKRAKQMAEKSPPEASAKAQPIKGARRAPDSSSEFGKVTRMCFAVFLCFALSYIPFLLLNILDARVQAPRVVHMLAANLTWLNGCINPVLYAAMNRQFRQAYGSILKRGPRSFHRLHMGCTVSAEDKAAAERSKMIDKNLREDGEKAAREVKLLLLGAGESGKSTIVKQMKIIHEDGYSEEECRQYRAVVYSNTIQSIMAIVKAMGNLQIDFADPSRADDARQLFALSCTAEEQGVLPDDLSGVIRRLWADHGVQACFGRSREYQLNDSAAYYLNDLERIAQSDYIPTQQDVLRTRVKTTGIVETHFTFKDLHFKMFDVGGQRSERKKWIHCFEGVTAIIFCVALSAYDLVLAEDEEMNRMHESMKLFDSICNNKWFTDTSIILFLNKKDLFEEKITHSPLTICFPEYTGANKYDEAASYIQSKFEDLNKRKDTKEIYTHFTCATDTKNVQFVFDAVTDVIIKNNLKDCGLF
T2 sequence (Q9NQS5+P04899 fused): as above

CN1CCN(C(=O)c2ccc(-c3nc(Cc4c[nH]c5ccccc45)nnc3-c3ccccc3)cc2)CC1=O [Compound 89, 4-(4-(3-((1H-Indol-3-yl)methyl)-6-phenyl-1,2,4-triazin-5-yl)benzoyl)-1-methylpiperazin-2-one]
IC50 (human GPR84 [1]): 490 nM

Cc1nnc(Cc2c[nH]c3ccccc23)nc1-c1ccccc1 [Compound 28, 3-[(6-Methyl-5-phenyl-1,2,4-triazin-3-yl)methyl]-1H-indole]
LLE (human GPR84 [2]): 1.73
IC50 (human GPR84 [1]): 10200 nM

COCCNC(=O)c1ccc(-c2nc(Cc3c[nH]c4ccccc34)nnc2-c2ccccc2)cc1 [Compound 87, 4-(3-((1H-Indol-3-yl)methyl)-6-phenyl-1,2,4-triazin-5-yl)-N-(2-methoxyethyl)benzamide]
IC50 (human GPR84 [1]): 72.4 nM

CN1CCN(C(=O)c2ccc(-c3nc(Cc4c[nH]c5ccccc45)nnc3-c3ccccc3)cc2)CC1 [Compound 86, (4-(3-((1H-Indol-3-yl)methyl)-6-phenyl-1,2,4-triazin-5-yl)phenyl)(4-methylpiperazin-1-yl)methanone]
IC50 (human GPR84 [1]): 955 nM

c1ccc(-c2nc[nH]c2-c2ccccc2)cc1 [DPI, 4,5-Diphenylimidazole, reference compound]
solubility kinetic (physchem; [3]): 27 µM (≈ 5.95 µg/mL)
solubility kinetic (physchem; [4]): 30 µM (≈ 6.61 µg/mL)
solubility kinetic (physchem; [5]): 25 µM (≈ 5.51 µg/mL)
solubility kinetic (physchem; [6]): 28 µM (≈ 6.17 µg/mL)
solubility kinetic (physchem; [7]): 28 µM (≈ 6.17 µg/mL)
solubility kinetic (physchem; [8]): 32 µM (≈ 7.05 µg/mL)

CC(=O)N1CCN(c2ccc(OCC3COC(Cn4ccnc4)(c4ccc(Cl)cc4Cl)O3)cc2)CC1 (stereo not shown) [Ketoconazole, reference compound]
solubility kinetic (physchem; [3]): 103 µM (≈ 54.7 µg/mL)
solubility kinetic (physchem; [4]): 129 µM (≈ 68.6 µg/mL)
solubility kinetic (physchem; [5]): 101 µM (≈ 53.7 µg/mL)
solubility kinetic (physchem; [6]): 128 µM (≈ 68 µg/mL)
solubility kinetic (physchem; [7]): 105 µM (≈ 55.8 µg/mL)
solubility kinetic (physchem; [8]): 129 µM (≈ 68.6 µg/mL)

CN(C)CCNC(=O)c1ccc(-c2nc(Cc3c[nH]c4ccccc34)nnc2-c2ccccc2)cc1 [Compound 84, 4-(3-((1H-Indol-3-yl)methyl)-6-phenyl-1,2,4-triazin-5-yl)-N-(2-(dimethylamino)ethyl)benzamide]
IC50 (human GPR84 [1]): 1000 nM

O=C(NCCO)c1ccc(-c2nc(Cc3c[nH]c4ccccc34)nnc2-c2ccccc2)cc1 [Compound 85, 4-(3-((1H-Indol-3-yl)methyl)-6-phenyl-1,2,4-triazin-5-yl)-N-(2-hydroxyethyl)benzamide]
IC50 (human GPR84 [1]): 28.8 nM

O=C(c1ccc(-c2nc(Cc3c[nH]c4ccccc34)nnc2-c2ccccc2)cc1)N1CCOCC1 [Compound 83, (4-(3-((1H-Indol-3-yl)methyl)-6-phenyl-1,2,4-triazin-5-yl)phenyl)(morpholino)methanone]
IC50 (human GPR84 [1]): 209 nM

NC(=O)CNC(=O)c1ccc(-c2nc(Cc3c[nH]c4ccccc34)nnc2-c2ccccc2)cc1 [Compound 90, 4-(3-((1H-Indol-3-yl)methyl)-6-phenyl-1,2,4-triazin-5-yl)-N-(2-amino-2-oxoethyl)benzamide]
IC50 (human GPR84 [1]): 380 nM

Cc1nc(Cc2c[nH]c3ccccc23)nnc1-c1ccccc1 [Compound 29, 3-[(5-Methyl-6-phenyl-1,2,4-triazin-3-yl)methyl]-1H-indole]
LLE (human GPR84 [2]): 1.99
IC50 (human GPR84 [1]): 5620 nM

FC(F)(F)Oc1ccccc1-c1cnc(Cc2c[nH]c3ccccc23)nn1 [Compound 27, 3-((6-(2-(Trifluoromethoxy)phenyl)-1,2,4-triazin-3-yl)methyl)-1H-indole]
GTPγS (pIC50) (human GPR84 [2]): 5.59 ± 0.13

c1ccc(-c2nc(Cc3c[nH]c4ccccc34)nnc2-c2cccnn2)cc1 [Compound 31, 3-((5-Phenyl-6-(pyridazin-3-yl)-1,2,4-triazin-3-yl)methyl)-1H-indole]
GTPγS (pIC50) (human GPR84 [2]): 6.85 ± 0.03

3-((5-Phenyl-6-(pyrimidin-2-yl)-1,2,4-triazin-3-yl)methyl)-1H-indole or 3-((6-phenyl-5-(pyrimidin-2-yl)-1,2,4-triazin-3-yl)methyl)-1H-indole [Compound 32]
GTPγS (pIC50) (human GPR84 [2]): 6.58 ± 0.08

c1ccc(-c2nc(Cc3c[nH]c4cnccc34)nnc2-c2cnccn2)cc1 [Compound 60, 3-((5-Phenyl-6-(pyrazin-2-yl)-1,2,4-triazin-3-yl)methyl)-1H-pyrrolo[2,3-c]pyridine]
GTPγS (pIC50) (human GPR84 [2]): 5.91± 0.06

Fc1ccc2c(Cc3nnc(-c4ccccc4)c(-c4ccccc4)n3)c[nH]c2c1 [Compound 15, 3-((5,6-Diphenyl-1,2,4-triazin-3-yl)methyl)-6-fluoro-1H-indole]
GTPγS (pIC50) (human GPR84 [2]): 6.65 ± 0.03

CC(=O)NCc1ccc(-c2nnc(Cc3c[nH]c4ccccc34)nc2-c2ccccc2)cc1 [Compound 46, N-(4-(3-((1H-Indol-3-yl)methyl)-5-phenyl-1,2,4-triazin-6-yl)benzyl)acetamide]
GTPγS (pIC50) (human GPR84 [2]): 7.98 ± 0.06

Methyl 3-(3-((1H-Indol-3-yl)methyl)-6-phenyl-1,2,4-triazin-5-yl)benzoate [Compound 54]
GTPγS (pIC50) (human GPR84 [2]): 6.94 ± 0.03

CS(=O)(=O)c1ccc(-c2nnc(Cc3c[nH]c4ccccc34)nc2-c2ccccc2)cc1 [Compound 36, 3-((6-(4-(Methylsulfonyl)phenyl)-5-phenyl-1,2,4-triazin-3-yl)methyl)-1H-indole]
GTPγS (pIC50) (human GPR84 [2]): 6.18 ± 0.04

CCCCCc1nnc(-c2ccccc2)c(-c2ccccc2)n1 [Compound 21, 3-Pentyl-5,6-diphenyl-1,2,4-triazine]
GTPγS (pIC50) (human GPR84 [2]): 5.12 ± 0.05

CN(C)Cc1ccc(-c2nc(Cc3c[nH]c4ccccc34)nnc2-c2ccccc2)cc1 [Compound 43, 1-(4-(3-((1H-Indol-3-yl)methyl)-6-phenyl-1,2,4-triazin-5-yl)phenyl)-N,N-dimethylmethanamine]
GTPγS (pIC50) (human GPR84 [2]): 6.20 ± 0.05

c1ccc(-c2nnc(Cc3c[nH]c4ccccc34)nc2-c2ccc(CN3CCOCC3)cc2)cc1 [Compound 41, 4-(4-(3-((1H-Indol-3-yl)methyl)-6-phenyl-1,2,4-triazin-5-yl)benzyl)morpholine]
GTPγS (pIC50) (human GPR84 [2]): 7.51 ± 0.28

c1ccc(-c2nc(Cc3c[nH]c4cnccc34)nnc2-c2ccc(CN3CCOCC3)cc2)cc1 [Compound 64, 4-(4-(3-((1H-Pyrrolo[2,3-c]pyridin-3-yl)methyl)-5-phenyl-1,2,4-triazin-6-yl)benzyl)morpholine]
GTPγS (pIC50) (human GPR84 [2]): 8.33 ± 0.15

CNC(=O)c1ccc(-c2nc(Cc3c[nH]c4cnccc34)nnc2-c2ccccc2)cc1 [Compound 67, 4-(3-((1H-Pyrrolo[2,3-c]pyridin-3-yl)methyl)-6-phenyl-1,2,4-triazin-5-yl)-N-methylbenzamide]
GTPγS (pIC50) (human GPR84 [2]): 6.48 ± 0.04

c1ccc(-c2nnc(Cc3cnc4ccccn34)nc2-c2ccccc2)cc1 [Compound 20, 3-((5,6-Diphenyl-1,2,4-triazin-3-yl)methyl)imidazo[1,2-a]pyridine]
GTPγS (pIC50) (human GPR84 [2]): 5.44 ± 0.09

O=C(O)c1cccc(-c2nc(Cc3c[nH]c4ccccc34)nnc2-c2ccccc2)c1 [Compound 55, 3-(3-((1H-Indol-3-yl)methyl)-6-phenyl-1,2,4-triazin-5-yl)benzoic Acid]
GTPγS (pIC50) (human GPR84 [2]): 4.99 ± 0.32

c1ccc(-c2nnc(Cc3c[nH]c4cnccc34)nc2-c2ccc(CN3CCOCC3)cc2)cc1 [Compound 63, 4-(4-(3-((1H-Pyrrolo[2,3-c]pyridin-3-yl)methyl)-6-phenyl-1,2,4-triazin-5-yl)benzyl)morpholine]
GTPγS (pIC50) (human GPR84 [2]): 7.27 ± 0.06

CN1CCN(C(=O)c2ccc(-c3nnc(Cc4c[nH]c5ccccc45)nc3-c3ccccc3)cc2)CC1=O [Compound 80, 4-(4-(3-((1H-Indol-3-yl)methyl)-5-phenyl-1,2,4-triazin-6-yl)benzoyl)-1-methylpiperazin-2-one]
GTPγS (pIC50) (human GPR84 [2]): 6.69 ± 0.04

COC(=O)c1ccc(-c2nc(Cc3c[nH]c4ccccc34)nnc2-c2ccccc2)cc1 [Compound 49, Methyl 4-(3-((1H-Indol-3-yl)methyl)-6-phenyl-1,2,4-triazin-5-yl)benzoate]
GTPγS (pIC50) (human GPR84 [2]): 6.74 ± 0.05

CC(=O)NCCNC(=O)c1ccc(-c2nc(Cc3c[nH]c4ccccc34)nnc2-c2ccccc2)cc1 [Compound 88, 4-(3-((1H-Indol-3-yl)methyl)-6-phenyl-1,2,4-triazin-5-yl)-N-(2-acetamidoethyl)benzamide]
IC50 (human GPR84 [1]): 209 nM

c1ccc(-c2nnc(Cc3c[nH]c4ccccc34)nc2-c2ccccn2)nc1 [Compound 8, 3-((5,6-Di(pyridin-2-yl)-1,2,4-triazin-3-yl)methyl)-1H-indole]
GTPγS (pIC50) (human GPR84 [2]): 5.70 ± 0.21
